# In patent US20220289794A1, “SYNTHETIC ANTIMICROBIAL PEPTIDES” (priority 2019, published 2022):
# What was measured:
# [1] = system: Pseudomonas aeruginosa (ATCC 27883); conditions: P. aeruginosa ATCC 27883
# B. subtilis (ATCC-6633) = test: Broad-spectrum activity against Gram-Positive bacteria (MIC); type: cell-based; parameters: unit not given here
# [2] = system: A. baumannii (ATCC BAA-1605); test: Broad-spectrum activity against Gram-Negative bacteria (MIC); type: cell-based; conditions: Table 16, Gram-negative panel
# [3] = system: P. aeruginosa (ATCC 10145); test: as above; type: cell-based; conditions: Table 16, Gram-negative panel
# [4] = system: Escherichia coli (ATCC 25922); conditions: E. coli ATCC 25922
# S. aureus ATCC 29213 = conditions: S. aureus ATCC 29213
# [5] = system: Enterococcus faecalis ATCC 29212; conditions: E. faecalis ATCC 29212
# [6] = system: P. aeruginosa (ATCC BAA-1744); test: Broad-spectrum activity against Gram-Negative bacteria (MIC); type: cell-based; conditions: Table 16, Gram-negative panel
# [7] = system: Klebsiella pneumoniae (ATCC BAA-1705); conditions: Table 16, Gram-negative panel
# [8] = system: Klebsiella pneumoniae ATCC 13883; conditions: Table 16, Gram-negative panel
# [9] = system: Enterococcus faecium ATCC 27270; conditions: E. faecium ATCC 27270
# [10] = system: Streptococcus pneumoniae ATCC 51938; conditions: S. pneumoniae ATCC 51938
# B. cereus (ATCC-13061) = test: Broad-spectrum activity against Gram-Positive bacteria (MIC); type: cell-based; parameters: unit not given here
# [11] = system: Methicillin-resistant Staphylococcus aureus MRSA (ATCC BAA-1556); conditions: MRSA ATCC BAA-1556
# [12] = system: Enterococcus faecium ATCC 700221; conditions: E. faecium ATCC 700221
# [13] = system: Enterococcus faecalis ATCC 51575; conditions: E. faecalis ATCC 51575
# E. coli (ATCC BAA-2452) = test: Broad-spectrum activity against Gram-Negative bacteria (MIC); type: cell-based; conditions: Table 16, Gram-negative panel
# [14] = system: Streptococcus pneumoniae ATCC 49619; conditions: S. pneumoniae ATCC 49619
Substance,MIC P. aeruginosa ATCC 27883 [1],Broad-spectrum activity B. subtilis (ATCC-6633) (B. subtilis (ATCC-6633)),MIC A. baumannii (ATCC BAA-1605) [2],MIC P. aeruginosa (ATCC 10145) [3],MIC E. coli ATCC 25922 [4],MIC S. aureus ATCC 29213 (S. aureus ATCC 29213),Broad-spectrum activity E. faecalis (ATCC 29212) [5],MIC P. aeruginosa (ATCC BAA-1744) [6],MIC K. pneumonia (ATCC BAA-1705) [7],MIC K. pneumonia (ATCC 13883) [8],Broad-spectrum activity E. faecium (ATCC 27270) [9],Broad-spectrum activity S. pneumoniae (ATCC 51938) [10],Broad-spectrum activity B. cereus (ATCC-13061) (B. cereus (ATCC-13061)),MIC MRSA ATCC BAA-1556 [11],Broad-spectrum activity E. faecium (ATCC 700221) [12],Broad-spectrum activity E. faecalis (ATCC 51575) [13],MIC E. coli (ATCC BAA-2452) (E. coli (ATCC BAA-2452)),Broad-spectrum activity S. pneumoniae (ATCC 49619) [14]
c[Arg-Arg-arg-Arg-Dip-Trp-Dip] [IFX-092],12.5 µg/mL,1.5,12.5 µg/mL,25 µg/mL,25 µg/mL,3.1 µg/mL,12.5,25 µg/mL,25 µg/mL,50 µg/mL,6.2,25,6.2,3.1 µg/mL,12.5,12.5,12.5 µg/mL,50
c[arg-arg-Arg-Arg-NaI-trp-NaI] [IFX-140],32 µg/mL,1.5,12.5 µg/mL,25 µg/mL,32 µg/mL,3.1 µg/mL,6.2,25 µg/mL,> 50 µg/mL,50 µg/mL,3.1,12.5,3.1,3.1 µg/mL,6.2,6.2,25 µg/mL,25
c[Arg-Arg-arg-arg-naI-trp-naI] [IFX-137],32 µg/mL,1.5,12.5 µg/mL,25 µg/mL,16 µg/mL,3.1 µg/mL,6.2,25 µg/mL,50 µg/mL,50 µg/mL,3.1,12.5,3.1,3.1 µg/mL,3.1,6.2,25 µg/mL,25
c[Arg-Arg-Arg-Arg-Dip-trp-Dip] [IFX-089],12.5 µg/mL,3.1,12.5 µg/mL,25 µg/mL,12.5 µg/mL,3.1 µg/mL,12.5,25 µg/mL,25 µg/mL,50 µg/mL,6.2,25,12.5,3.1 µg/mL,12.5,12.5,12.5 µg/mL,50
c[Arg-arg-Arg-Arg-Dip-Trp-Dip] [IFX-093],12.5 µg/mL,1.5,12.5 µg/mL,25 µg/mL,12.5 µg/mL,3.1 µg/mL,12.5,25 µg/mL,12.5 µg/mL,50 µg/mL,6.2,25,6.2,3.1 µg/mL,6.2,12.5,6.2 µg/mL,50
